Assay results published in article PMC3003687, “α-Galactosylceramide Analogs with Weak Agonist Activity for Human iNKT Cells Define New Candidate Anti-Inflammatory Agents” (PLoS ONE, 2010).

Assays:
Human iNKT TCRs = Human iNKT TCRs (Homo sapiens, UniProt A0A075B6N4+A0A0B4J240+P15813); assay: Equilibrium binding of analog-loaded hCD1d tetramers to iNKT cell clones
Source text: For flow cytometric analysis, 6B11 (Vα24Jα18 specific) and mAbs specific for human CD3, CD4, CD8α, CD19, CD40L (CD154), CD56, CD69, GM-CSF & IFNγ were obtained from BD Biosciences. IL-4 and IL-13 specific mAbs were from Biolegend. Vα24 (C15) and Vβ11 (C21) specific mAb were from Immunotech. For antibody blocking in culture assays, non-specific isotype matched control, IL-2, IFNγ, IL-12p70 and CD40L specific mAbs without preservatives were obtained from BD Biosciences and IL-18 specific mAb from Medical & Biological Laboratories (MBL, Nagoya, Japan). Phycoerythrin and allophycocyanin labeled human CD1d tetramers were prepared in our laboratory as previously described. Curves of tetramer equilibrium binding constants and graphs were plotted using the Graphpad Prism Software (Version 5). KD values were calculated using the function non-linear fit (hyperbola, one binding site).
(§1) To characterize in more detail the iNKT cell TCR recognition of αGalCer analogs presented by human CD1d, we generated soluble and fluorescent tetrameric hCD1d molecules loaded with each of the glycolipid analogs. […] This was similar to the previously reported failure of mouse CD1d tetramer loaded with lysosulfatide to bind detectably to murine non-invariant and sulfatide specific NKT cells, despite a clear reactivity to this lipid upon presentation by APCs; [40]. […] To quantitate their binding avidities to iNKT cell TCRs, we used titration of analog-loaded hCD1d tetramers to determine equilibrium dissociation constants (KD), which are inversely proportional to avidity (Figure 3A and 3B).
(§2) Figure 3 Characterization of human iNKT cell TCR interactions with analog-loaded tetramers. (A) iNKT cell clones were stained with titrated amounts of hCD1d tetramers loaded with the indicated glycolipids (abbreviations as in legend to Figure 1), and the measured MFI values are plotted for selected glycolipids. (B) The equilibrium dissociation constants (KD, inversely proportional to TCR avidity) were determined as the concentrations of tetramers required to yield 50% of maximal binding. Data shown were obtained using the CD4^+ iNKT cell clone HDD3, and similar results (not shown) were obtained with a second CD4^+ clone (HDD11) and a CD4^−8^− double negative iNKT cell clone (HDE3). (C) Analysis of iNKT cell clones labeled with 20 nM of hCD1d tetramers which were loaded with variable excesses of analog to constant hCD1d (25 to 1000 fold molar excess of glycolipid to hCD1d protein). The measured MFI values were normalized as the percent of the maximum staining intensity obtained with each analog loaded tetramer. Data presented were generated with HDD3 (CD4+) iNKT cell clone, and similar results (not shown) were obtained with HDE3 (DN) clone.

human iNKT cell clones = assay: Cytokine responses of iNKT cell clones, Hela-CD1d cells compared with monocyte-derived DC as APC; assay type: cell-based; conditions: limited analog concentrations
Source text: CD1d-transfected Hela cells might not be representative of the presentation by DCs, so we performed a comparative analysis, with more limited analog concentrations, between Hela-CD1d cells and monocyte-derived DC (Supplementary Figure S5). […] However we observed a higher cytokine levels produced upon stimulation with Hela cells, which can be explained by a higher CD1d expression.
Supplementary file pone.0014374.s005.tif: Figure S5 Comparison of cytokine responses of human iNKT cell clones between CD1d-transfected HeLa cells and Dendritic Cells, with a limited range of analog concentrations. CD1d-transfected HeLa cells (black bars) and monocyte-derived DCs (white bars) were incubated overnight in parallel with increasing concentrations of KRN7000, C20:2 (tested from left to right at 0.1, 1, 10 and 100 nM,) and higher concentrations of other analogs (10, 100 nM, 1 and 10 µM), then used as APC for iNKT cell stimulation. After 24 h of co-culture, supernatants were harvested, and cytokine levels were measured by ELISA. The sensitivity of detection was 27.4 pg/mL for IL-4 and 82.3 pg/mL for IL-13 and IFNγ. The data shown were generated with a CD4+ iNKT cell clone (HDD3) and a double negative (DN, HDE3). (0.12 MB TIF) Click here for additional data file.

human iNKT cells = conditions: cited from earlier work
[1] = system: iNKT cells in PBMCs from healthy donors; assay: Ex vivo staining of PBMCs from healthy donors with analog-loaded hCD1d tetramers; assay type: cell-based, human
Source text: Our panel of clones might be limited to iNKT cells able to expand upon PHA stimulation and might be representative of a fraction only of the iNKT cell repertoire. […] The frequencies of iNKT cells measured using tetramers loaded with N-aromatic branched analogs were lower in some or all PBMCs tested. A lower detection might be explained by weaker efficiency of staining, since lower MFI values were also seen with iNKT cell clones stained with tetramers loaded with these glycolipids.
Figure 4 Ex vivo analysis of PBMC with CD1d tetramers loaded with αGalCer analogs. (A) Flow cytometric analyses were performed after labeling of PBMCs from healthy donors with hCD1d tetramers loaded with each of the indicated glycolipids. Representative dot plots generated with PBMCs from one normal donor, with the analog tested indicated at the top of each plot and the percentages of tetramer^+ CD3^+ cells indicated in the top right quadrants. The dot plots show events gating as live lymphocytes (PI negative and FSC/SSC gated lymphocytes). (B) Comparison of tetramer^+ cell frequencies in PBMC from three different donors. The frequencies of cells specifically stained with hCD1d tetramers loaded with the indicated glycolipids (or vehicle (Veh) only (i.e., DMSO)) are shown as the percentage of total iNKT cells (i.e., cells staining with mAb 6B11^+, specific for the invariant TCRα chain of iNKT cells). Similar results were obtained for three additional PBMC donors (not shown). TEXT PRINTED IN THE PICTURE: (A) Vehicle: 0.03 | (A) KRN7000: 0.56 | (A) C20:2: 0.52 | (A) C20:4: 0.58 | (A) Tol: 0.16 | (A) DFB: 0.56 | (A) BB: 0.29 | (A) AD: 0.49 DOUBTS OF THE COPYIST ABOUT THIS PICTURE: Panel A: the numbers in the upper right quadrants are printed without a measure or unit; only the axes (hCD1d tetramer / CD3) are printed

hCD1d = target: T1, hCD1d (Homo sapiens, UniProt P15813); assay: Loading of hCD1d tetramers with variable glycolipid to CD1d ratios; assay type: binding; conditions: 20 nM tetramers, 25 to 1000 fold molar excess of glycolipid to hCD1d, HDD3 clone
T1 construct: we generated soluble and fluorescent tetrameric hCD1d molecules loaded with each of the glycolipid analogs; made in house
Source text: as §1, §2

Row | avidity of human iNKT TCRs for analog in complex with hCD1d (Human iNKT TCRs) | lipid excess at which tetramers were efficiently loaded (hCD1d) | SMILES | agonist strength with Hela-CD1d cells and DC (human iNKT cell clones) | agonist activity for human iNKT cells (human iNKT cells) | iNKT cell frequencies with loaded tetramers versus staining with Vα24Jα18 specific Ab 6B11 [1]
1 | strong avidity | – | CCCCC/C=C\C/C=C\CCCCCCCCCC(=O)N[C@@H](CO[C@H]1O[C@H](CO)[C@H](O)[C@H](O)[C@H]1O)[C@H](O)[C@H](O)CCCCCCCCCCCCCC [C20:2] | strong agonists | strong agonist | Comparable iNKT cell frequencies
2 | strong avidity | – | CCCCC/C=C\C/C=C\C/C=C\C/C=C\CCCC(=O)N[C@@H](CO[C@H]1O[C@H](CO)[C@H](O)[C@H](O)[C@H]1O)[C@H](O)[C@H](O)CCCCCCCCCCCCCC [C20:4] | – | – | Comparable iNKT cell frequencies
3 | strong avidity | 25–50 fold | CCCCCCCCCCCCCCCCCCCCCCCCCC(=O)N[C@@H](CO[C@H]1O[C@H](CO)[C@H](O)[C@H](O)[C@H]1O)[C@H](O)[C@H](O)CCCCCCCCCCCCCC [KRN7000, reference compound] | strong agonists | – | Comparable iNKT cell frequencies
